Measured values published in patent US20250282776A1, “Bicyclic TLR7 Agonists and Uses Thereof” (Bristol-Myers Squibb Company, priority 2024, published 2025).

Experiments:
human TLR8 (hTLR8) = biological target: T1, human TLR8 (hTLR8) (Homo sapiens, UniProt Q9NR97); assay: Human TLR8 agonist activity assay (measured in a similar manner); assay type: cell-based; details: HEK-Blue TLR cells, SEAP reporter, measured in a similar manner to TLR7; some values average of multiple measurements
T1 construct: expressed in transfected cells
T1 sequence (Q9NR97 27-1041): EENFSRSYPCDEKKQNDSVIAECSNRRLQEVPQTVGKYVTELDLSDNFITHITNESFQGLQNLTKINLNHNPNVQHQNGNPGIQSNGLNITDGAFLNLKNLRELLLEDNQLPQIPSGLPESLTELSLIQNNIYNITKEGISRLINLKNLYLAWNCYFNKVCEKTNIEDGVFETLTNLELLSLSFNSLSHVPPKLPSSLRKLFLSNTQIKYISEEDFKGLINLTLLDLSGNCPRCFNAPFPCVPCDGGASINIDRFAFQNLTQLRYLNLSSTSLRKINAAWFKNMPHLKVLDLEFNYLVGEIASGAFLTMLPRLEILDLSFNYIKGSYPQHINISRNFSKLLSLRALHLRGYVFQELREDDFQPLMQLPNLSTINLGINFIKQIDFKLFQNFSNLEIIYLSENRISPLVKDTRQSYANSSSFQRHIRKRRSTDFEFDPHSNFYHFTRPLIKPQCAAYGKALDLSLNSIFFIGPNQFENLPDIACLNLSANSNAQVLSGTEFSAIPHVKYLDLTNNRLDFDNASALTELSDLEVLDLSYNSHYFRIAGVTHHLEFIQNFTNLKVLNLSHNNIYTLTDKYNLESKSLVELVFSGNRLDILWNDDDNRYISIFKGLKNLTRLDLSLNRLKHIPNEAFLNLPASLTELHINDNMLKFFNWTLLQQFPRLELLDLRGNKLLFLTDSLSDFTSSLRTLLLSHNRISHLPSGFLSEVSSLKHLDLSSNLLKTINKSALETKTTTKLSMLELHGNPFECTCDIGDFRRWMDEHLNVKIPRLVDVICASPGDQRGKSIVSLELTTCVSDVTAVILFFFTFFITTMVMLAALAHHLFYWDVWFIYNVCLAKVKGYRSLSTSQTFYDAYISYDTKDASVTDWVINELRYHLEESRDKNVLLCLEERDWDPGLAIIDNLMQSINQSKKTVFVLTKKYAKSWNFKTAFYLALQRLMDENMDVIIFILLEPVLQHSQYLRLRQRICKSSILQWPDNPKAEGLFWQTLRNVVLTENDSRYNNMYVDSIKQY
Experimental: (§1) This procedure describes a method for assaying human TLR7 (hTLR7) and human TLR8 (hTLR8) agonist activity of the compounds disclosed herein.
HEK-Blue™ TLR7 cells were added to each well of a 384-well tissue-culture plate (15,000 cells per well) and incubated 16-18 h at 37° C., 5% CO2. Compounds (100 nL) were dispensed into wells containing the HEK-Blue™ TLR cells and the treated cells were incubated at 37° C., 5% CO2. After 18 h, ten microliters 5 of freshly prepared Quanti-Blue™ reagent (Invivogen) was added to each well and incubated for 30 min (37° C., […]). SLAP levels were measured using an Envision plate reader (OD=620 nm). […] Some of the reported activities were the average of multiple measurements.
TLR8 activity was measured in a similar manner.

human TLR7 (hTLR7) = biological target: T2, human TLR7 (hTLR7) (Homo sapiens, UniProt Q9NYK1); assay: Human TLR7 agonist activity assay (HEK-Blue TLR7 SEAP reporter); assay type: cell-based; details: HEK-Blue TLR7 cells, 18 h incubation, Quanti-Blue, OD 620 nm, some values average of multiple measurements
T2 construct: host or cells: HEK-Blue TLR7 cells (engineered human embryonic kidney cells)
T2 sequence (Q9NYK1 27-1049): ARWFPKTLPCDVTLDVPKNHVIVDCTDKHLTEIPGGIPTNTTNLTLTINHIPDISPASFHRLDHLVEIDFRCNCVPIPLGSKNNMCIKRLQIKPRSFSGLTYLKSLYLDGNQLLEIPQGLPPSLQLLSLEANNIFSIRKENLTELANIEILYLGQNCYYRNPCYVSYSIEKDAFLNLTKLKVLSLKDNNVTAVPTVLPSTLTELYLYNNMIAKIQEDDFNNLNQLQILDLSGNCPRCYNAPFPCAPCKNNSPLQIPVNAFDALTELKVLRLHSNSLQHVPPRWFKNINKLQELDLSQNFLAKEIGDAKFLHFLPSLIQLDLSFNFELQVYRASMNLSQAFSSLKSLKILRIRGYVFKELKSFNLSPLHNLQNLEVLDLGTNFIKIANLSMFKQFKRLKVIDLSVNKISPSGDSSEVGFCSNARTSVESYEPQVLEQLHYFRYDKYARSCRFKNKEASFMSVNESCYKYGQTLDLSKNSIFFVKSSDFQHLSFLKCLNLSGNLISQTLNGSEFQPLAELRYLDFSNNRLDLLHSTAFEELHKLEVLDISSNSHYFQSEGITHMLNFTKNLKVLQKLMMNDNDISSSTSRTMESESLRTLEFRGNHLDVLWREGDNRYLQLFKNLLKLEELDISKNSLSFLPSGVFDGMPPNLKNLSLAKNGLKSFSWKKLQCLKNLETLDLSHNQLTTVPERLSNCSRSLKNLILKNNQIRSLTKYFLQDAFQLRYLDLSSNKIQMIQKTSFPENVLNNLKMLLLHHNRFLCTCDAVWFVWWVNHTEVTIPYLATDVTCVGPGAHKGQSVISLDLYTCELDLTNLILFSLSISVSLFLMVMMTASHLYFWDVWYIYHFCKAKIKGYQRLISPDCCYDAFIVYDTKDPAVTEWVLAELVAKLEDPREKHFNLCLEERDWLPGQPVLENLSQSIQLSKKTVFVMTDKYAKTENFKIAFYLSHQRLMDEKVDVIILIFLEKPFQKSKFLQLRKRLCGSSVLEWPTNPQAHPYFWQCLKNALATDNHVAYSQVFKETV
Experimental: as §1
HEK-Blue™ TLR7 cells were added to each well of a 384-well tissue-culture plate (15,000 cells per well) and incubated 16-18 h at 37° C., 5% CO2. Compounds (100 nL) were dispensed into wells containing the HEK-Blue™ TLR cells and the treated cells were incubated at 37° C., 5% CO2. After 18 h, ten microliters 5 of freshly prepared Quanti-Blue™ reagent (Invivogen) was added to each well and incubated for 30 min (37° C., […]). SLAP levels were measured using an Envision plate reader (OD=620 nm). The half maximal effective concentration values (ECSO; compound concentration which induced a response halfway between the assay baseline and maximum) were calculated. Some of the reported activities were the average of multiple measurements.

Compound	EC50 (human TLR8 (hTLR8)) [µM]	EC50 (human TLR7 (hTLR7)) [µM]
CCCCN(CCO)c1nc(N)nc2cn(Cc3ccc(CNC(C)(C)C)n4ncnc34)nc12 [Compound 189, 2-((5-Amino-2-((5-((tert-butylamino)methyl)-[1,2,4]triazolo[1,5-a]pyridin-8-yl)methyl)-2H-pyrazolo[4,3-d]pyrimidin-7-yl)(butyl)amino)ethan-1-ol]	0.57	0.793
CCCCN(CCO)c1nc(N)nc2cn(Cc3ccc(CN[C@H]4C[C@H](OCC)C4)cc3OC)nc12 [Compound 101]	1.57	1.6
CCCCN(CCO)c1nc(N)nc2cn(Cc3ccc(CNC4CCOCC4)c4c3OCCC4)nc12 [Compound 137]	0.4	1.05
CCCCN(CCO)c1nc(N)nc2cn(Cc3c(OC)cc(CNCCOC)cc3OC)nc12 [Compound 143]	1.87	1.7
CCCCN(CCO)c1nc(N)nc2cn(Cc3c(F)cc(C4CCN(C(C)C)CC4)cc3OC)nc12 [Compound 40]	0.801	0.392
CCCCN(CCO)c1nc(N)nc2cn(Cc3ccc(CN[C@@H]4CCOC4)n4ccnc34)nc12 [Compound 187, (R)-2-((5-Amino-2-((5-(((tetrahydrofuran-3-yl)amino)methyl)imidazo[1,2-a]pyridin-8-yl)methyl)-2H-pyrazolo[4,3-d]pyrimidin-7-yl)(butyl)amino) ethan-1-ol]	0.86	0.674
CCCCN(CCO)c1nc(N)nc2cn(Cc3cc(OC)c(C4CCN(CCOC)CC4)cc3OC)nc12 [Compound 106]	2.5	1.14
CCCCN(CCO)c1nc(N)nc2cn(Cc3c(F)cc(CNC4CCOCC4)cc3F)nc12 [Compound 115]	1.5	0.108
CCCCN(CCO)c1nc(N)nc2cn(Cc3ccc(CNC4CCOCC4)c4nccnc34)nc12 [Compound 206]	1.19	1.9
CCCCN(CCO)c1nc(N)nc2cn(Cc3ccc(CNC4CCN(C)CC4)c4cccnc34)nc12 [Compound 65]	2.38	2.09
CCCCN(CCO)c1nc(N)nc2cn(Cc3ccc(CNC4CCN(CCOC)CC4)c4cccnc34)nc12 [Compound 66]	2.13	1.59
CCCCN(CCO)c1nc(N)nc2cn(Cc3ccc(CN4CCN(C)CC4)cc3OC)nc12 [Compound 13]	1.13	0.733
CCCCN(CCO)c1nc(N)nc2cn(Cc3c(F)cc(CN4CC(OC)C4)cc3OC)nc12 [Compound 84]	0.497	0.199
CCCCN(CCO)c1nc(N)nc2cn(Cc3ccc(CNC[C@H]4C[C@H](O)C4)cc3OC)nc12 [Compound 23]	1.9	1.91
CCCCN(CCO)c1nc(N)nc2cn(Cc3ccc(CNC(C)(C)CO)cc3OC)nc12 [Compound 32]	1.2	2.5
CCCCN(CCO)c1nc(N)nc2cn(Cc3ccc(CNC4CCOC4(C)C)cc3OC)nc12 (centres unmarked) [Compound 153]	0.306	0.615
